The text below walks through data of patent publication US20170066759A1, “AROMATIC 5-MEMBERED HETEROCYCLIC DERIVATIVE HAVING TRPV4-INHIBITING ACTIVITY” (Shionogi & Co., Ltd., priority 2012, published 2017).

What is called IC50 is the midpoint of a concentration-inhibition curve.

Structures are written as SMILES.

One assay deals with T1, human TRPV4 (hTRPV4/CHO cells) (Homo sapiens, UniProt Q9HBA0).
T1 construct: expressed in transfected cells; host or cells: CHO-K1
T1 sequence (Q9HBA0 whole entry): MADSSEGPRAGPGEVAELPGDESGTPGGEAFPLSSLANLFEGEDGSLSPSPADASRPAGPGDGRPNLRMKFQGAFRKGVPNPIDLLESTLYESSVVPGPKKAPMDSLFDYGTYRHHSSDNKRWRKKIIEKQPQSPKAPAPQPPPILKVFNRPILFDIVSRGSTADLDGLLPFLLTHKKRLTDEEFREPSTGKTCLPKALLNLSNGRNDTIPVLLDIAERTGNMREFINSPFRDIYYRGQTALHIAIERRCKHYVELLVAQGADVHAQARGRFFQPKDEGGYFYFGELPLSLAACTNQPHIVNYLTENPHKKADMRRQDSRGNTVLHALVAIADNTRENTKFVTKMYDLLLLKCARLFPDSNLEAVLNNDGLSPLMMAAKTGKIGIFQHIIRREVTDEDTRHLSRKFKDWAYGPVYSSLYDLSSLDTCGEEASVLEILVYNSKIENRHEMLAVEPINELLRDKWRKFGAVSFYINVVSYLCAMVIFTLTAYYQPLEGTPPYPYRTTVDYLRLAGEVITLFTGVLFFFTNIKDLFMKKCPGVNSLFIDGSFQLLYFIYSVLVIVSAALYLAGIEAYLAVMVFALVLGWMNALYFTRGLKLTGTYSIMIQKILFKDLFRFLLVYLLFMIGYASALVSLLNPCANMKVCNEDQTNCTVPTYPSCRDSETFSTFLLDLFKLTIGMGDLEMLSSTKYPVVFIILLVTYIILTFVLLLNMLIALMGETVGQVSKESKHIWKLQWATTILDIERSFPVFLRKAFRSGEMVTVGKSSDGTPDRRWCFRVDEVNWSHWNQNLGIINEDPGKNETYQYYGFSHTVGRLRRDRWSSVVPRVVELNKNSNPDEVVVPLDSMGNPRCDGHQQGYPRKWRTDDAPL
The assay can be described thus: Test Example 1: TRPV4 inhibitory activity (IC50 value), 4α-PDD stimulation, Fluo4 calcium fluorescence (FLIPR TETRA). In kind it is cell-based. The following applies: 1 μmol/L 4α-PDD, Fluo4-AM, read-out: TRPV4 inhibitory activity (IC50 value).
For the compound `Cc1nc(C)c(-c2csc(NC(=O)Cc3ccc(S(=O)(=O)N4CCCCC4)cc3)n2)s1` [Compound I-156], the IC50 came out at 30 nM.

Still in this assay, the particulars now being: Test Example 1, 4α-PDD stimulation, read-out: Test 1 IC50.
For `Cc1nc(C)c(-c2csc(NC(=O)CN3CCCC3c3ccccc3)n2)s1` (centres unmarked) [Compound I-154], the half-maximal inhibitory concentration (IC50) lay within 100 to 1000 nM.
The same measure, in the same setting: in the case of `Cc1nc(C)c(-c2csc(NC(=O)CN3CCC(c4ccccc4)C3)n2)s1` (centres unmarked) [Compound I-155] it was 100 to 1000 nM; in that of `Cc1nc(C)c(-c2csc(NC(=O)Cc3ccc(S(=O)(=O)N4CCCCC4)cc3)n2)s1` [Compound I-156], less than 100 nM.
On the same count and under the same terms, to `Cc1nc(C)c(-c2csc(NC(=O)Cc3ccc(S(=O)(=O)N4CCOCC4)cc3)n2)s1` [Compound I-157] belongs 100 to 1000 nM.
On the same count and under the same terms, in the case of `COc1ccc(N(C)S(=O)(=O)c2ccc(CC(=O)Nc3nc(-c4sc(C)nc4C)cs3)cc2)cc1` [Compound I-158] it was less than 100 nM; in that of `Cc1nc(C)c(-c2csc(NC(=O)Cc3ccc(S(=O)(=O)N(C)c4ccccc4)cc3)n2)s1` [Compound I-159], less than 100 nM.
For `Cc1nc(C)c(-c2csc(NC(=O)Cc3ccc(S(=O)(=O)N(C)c4ccc(Cl)cc4)cc3)n2)s1` [Compound I-160], the IC50 was less than 100 nM.
Regarding `Cc1nc(C)c(-c2csc(NC(=O)Cc3ccc(S(=O)(=O)N(C)c4cccc(Cl)c4)cc3)n2)s1` [Compound I-161], the IC50 was less than 100 nM.
As to `Cc1nc(C)c(-c2csc(NC(=O)Cc3ccc(S(=O)(=O)N(C)c4ccccc4Cl)cc3)n2)s1` [Compound I-162], the IC50 is less than 100 nM.
Same read-out and setting: in the case of `Cc1nc(C)c(-c2csc(NC(=O)Cc3ccc(S(=O)(=O)N(C)c4ccc(C#N)cc4)cc3)n2)s1` [Compound I-163] it was less than 100 nM; in that of `Cc1nc(C)c(-c2csc(NC(=O)Cc3ccc(S(=O)(=O)Nc4ccccc4)cc3)n2)s1` [Compound I-164], 100 to 1000 nM; in that of `Cc1nc(C)c(-c2csc(NC(=O)Cc3ccc(S(=O)(=O)N(C)c4cccnc4)cc3)n2)s1` [Compound I-165], 100 to 1000 nM.
The same measure, in the same setting: in the case of `Cc1nc(C)c(-c2csc(NC(=O)Cn3cc(-c4ccccc4S(C)(=O)=O)cn3)n2)s1` [Compound I-166] it was 100 to 1000 nM.
Consider `Cc1nc(C)c(-c2csc(NC(=O)Cn3cc(-c4cncnc4)cn3)n2)s1` [Compound I-167], for which the IC50 lay within 1000 to 8000 nM.
On to `Cc1nc(C)c(-c2csc(NC(=O)Cn3cc(-c4ccncc4)cn3)n2)s1` [Compound I-168], for which the IC50 fell in the range of 100 to 1000 nM.
Same read-out and setting: in the case of `Cc1nc(C)c(-c2csc(NC(=O)Cn3cc(-c4ccccc4N(C)C)cn3)n2)s1` [Compound I-169] it was less than 100 nM.
The same measure, in the same setting: in the case of `Cc1nc(C)c(-c2csc(NC(=O)CN3CCOC(c4ccccc4)C3)n2)s1` (centres unmarked) [Compound I-170] it was 100 to 1000 nM.
Same read-out and setting: in the case of `Cc1nc(CO)sc1-c1csc(NC(=O)CN2CCC(c3ccccc3)CC2)n1` [Compound I-171] it was 100 to 1000 nM; in that of `Cc1nc(CO)sc1-c1csc(NC(=O)C2CC2(F)F)n1` (centres unmarked) [Compound I-173], 100 to 1000 nM; in that of `O=C(Cc1ccc(S(=O)(=O)C(F)(F)F)cc1)Nc1nc(-c2sc(CO)nc2CO)cs1` [Compound I-174], less than 100 nM.
As to `Cc1nc(C)c(-c2csc(NC(=O)C3Cc4ccccc4N3C)n2)s1` (centres unmarked) [Compound I-175], the IC50 lay in the range of 100 to 1000 nM.
As to `Cc1nc(C)c(-c2csc(NC(=O)C3Cc4ccccc4N3C(=O)C(F)(F)F)n2)s1` (centres unmarked) [Compound I-176], the IC50 is less than 100 nM.
With `Cc1nc(C)c(-c2csc(NC(=O)C3Cc4ccccc4N3)n2)s1` (centres unmarked) [Compound I-177], the IC50 was 100 to 1000 nM.
Still for that read-out and setting: in the case of `Cc1nc(C)c(-c2csc(NC(=O)[C@@H]3C[C@@H](c4ccccc4)CN3)n2)s1` [Compound I-178] it was 100 to 1000 nM; in that of `Cc1nc(C)c(-c2csc(NC(=O)[C@@H]3C[C@H](c4ccccc4)CN3)n2)s1` [Compound I-179], 1000 to 8000 nM.
Regarding `Cc1nc(C)c(-c2csc(NC(=O)C3Cc4ccccc4O3)n2)s1` (centres unmarked) [Compound I-180], the half-inhibitory concentration (IC50) was less than 100 nM.
The same measure, in the same setting: to `CCNC(=O)c1nc(C)sc1-c1csc(NC(=O)Cc2c(F)cccc2F)n1` [Compound I-181] belongs 1000 to 8000 nM; to `Cc1nc(C(=O)NCCO)c(-c2csc(NC(=O)Cc3c(F)cccc3F)n2)s1` [Compound I-182], 1000 to 8000 nM.
Same read-out and setting: in the case of `Cc1nc(C)c(-c2csc(NC(=O)CN3CCC[C@@H](c4ccccc4)C3)n2)s1` [Compound I-183] it was 100 to 1000 nM; in that of `Cc1nc(C)c(-c2csc(NC(=O)CN3CCC[C@H](c4ccccc4)C3)n2)s1` [Compound I-184], less than 100 nM.
`Cc1nc(CO)sc1-c1csc(NC(=O)C2CCN(c3ccccc3)C2)n1` (centres unmarked) [Compound I-185]: the IC50 is less than 100 nM.
The same measure, in the same setting: to `Cc1nc(C(=O)NCCN(C)C)c(-c2csc(NC(=O)Cc3c(F)cccc3F)n2)s1` [Compound I-188] belongs 1000 to 8000 nM; to `Cc1nc(C)c(-c2csc(NC(=O)Cn3cc(C4(O)CCCCC4)nn3)n2)s1` [Compound I-189], 1000 to 8000 nM.
Same read-out and setting: to `Cc1nc(C)c(-c2csc(NC(=O)Cn3cc(C4CCCCC4)nn3)n2)s1` [Compound I-190] belongs less than 100 nM; to `Cc1nc(C)c(-c2csc(NC(=O)Cn3cc(-c4ccccc4)nn3)n2)s1` [Compound I-191], less than 100 nM.
On the same count and under the same terms, in the case of `Cc1nc(C)c(-c2csc(NC(=O)[C@H]3C[C@H](c4ccccc4)CN3)n2)s1` [Compound I-192] it was 1000 to 8000 nM; in that of `Cc1nc(C)c(-c2csc(NC(=O)[C@H]3C[C@@H](c4ccccc4)CN3)n2)s1` [Compound I-193], 1000 to 8000 nM; in that of `Cc1nc(C)c(-c2csc(NC(=O)C3CCCN(S(=O)(=O)c4ccccc4)C3)n2)s1` (centres unmarked) [Compound I-194], 1000 to 8000 nM.
With `Cc1nc(C)c(-c2csc(NC(=O)C3Cc4ccc(Cl)c(Cl)c4O3)n2)s1` (centres unmarked) [Compound I-195], the IC50 is less than 100 nM.
On the same count and under the same terms, to `Cc1nc(C)c(-c2csc(NC(=O)C3Cc4cc(S(=O)(=O)N(C)C)c(Cl)c(Cl)c4O3)n2)s1` (centres unmarked) [Compound I-196] belongs less than 100 nM; to `Cc1nc(C)c(-c2csc(NC(=O)C3CCN(S(=O)(=O)c4ccc(F)cc4)CC3)n2)s1` [Compound I-197], 100 to 1000 nM; to `CCNCc1nc(C)sc1-c1csc(NC(=O)Cc2c(F)cccc2F)n1` [Compound I-198], 100 to 1000 nM.
Same read-out and setting: to `Cc1nc(CO)sc1-c1csc(NC(=O)C2CC(=O)N(c3ccccc3)C2)n1` (centres unmarked) [Compound I-199] belongs 100 to 1000 nM; to `COc1ccc(N2CC(C(=O)Nc3nc(-c4sc(CO)nc4C)cs3)CC2=O)cc1` (centres unmarked) [Compound I-200], 1000 to 8000 nM.
On the same count and under the same terms, to `Cc1nc(C)c(-c2csc(NC(=O)C3Cc4c([N+](=O)[O-])cc(Cl)c(Cl)c4O3)n2)s1` (centres unmarked) [Compound I-201] belongs less than 100 nM; to `Cc1nc(CO)sc1-c1csc(NC(=O)[C@H]2C[C@H](F)C2)n1` [Compound I-202], less than 100 nM; to `Cc1nc(CO)sc1-c1csc(NC(=O)[C@H]2C[C@@H](F)C2)n1` [Compound I-203], 1000 to 8000 nM.
Consider `Cc1nc(CO)sc1-c1csc(NC(=O)C2CCN(c3ccc(Cl)cc3)C2)n1` (centres unmarked) [Compound I-204], for which the IC50 was less than 100 nM.
Same read-out and setting: to `Cc1nc(C)c(-c2csc(NC(=O)C3CC(C(C)(C)C)=NO3)n2)s1` (centres unmarked) [Compound I-205] belongs 100 to 1000 nM; to `Cc1nc(C)c(-c2csc(NC(=O)C3CC(c4ccccc4)=NO3)n2)s1` (centres unmarked) [Compound I-206], 100 to 1000 nM.
Take `Cc1nc(CO)sc1-c1csc(NC(=O)C2CC(c3ccccc3)=NO2)n1` (centres unmarked) [Compound I-207]: the IC50 lay within 100 to 1000 nM.
On the same count and under the same terms, to `Cc1nc(CO)sc1-c1csc(NC(=O)C2CN(Cc3ccc(C(F)(F)F)cc3)C2)n1` [Compound I-208] belongs less than 100 nM.
